Laboratory results taken from US6437138B1, “3-pyridyloxymethyl heterocyclic ether compounds useful in controlling chemical synaptic transmission” (priority 1996, dated 2002).
Structures can show the parent of a compound that is named as a salt.

SMILES | melting point
CN1CC[C@H]1COc1cnc(Cl)c(-c2ccc(Cl)cc2)c1 (as salt: citrate) [Example 143, 6-Chloro-5-(4-chlorophenyl)-3-(1-methyl-2-(S)-azetidialmethoxy)pyridine Citrate] | 78 to 79 °C
Clc1ncc(OC[C@@H]2CCN2)cc1C=Cc1ccncc1 (as salt: citric acid salt) [Example 89, 5-(2-(4-Pyridinyl)ethenyl)-6-chloro-3-(2-(S)-azetidnylmethoxy)pyridine Citric Acid Salt] | 195 to 197 °C
CN1CCC[C@H]1COc1cncc(-c2ccco2)c1 (as salt: hydrochloride) [Example 5, 5-(2-Furanyl-3-(1-methyl-2-(S)-pyrrolidinylmethoxy)pyridine Dihydrochloride] | 189 to 191 °C
CN1CCC[C@H]1COc1cncc(-c2cccs2)c1 (as salt: hydrochloride) [Example 6, 5-(2-Thienyyl)-3-(1-methyl-2-(S)-pyrrolidinylmethoxy)pyridine Dihydrochloride] | 201 to 203 °C
CN1CCC[C@H]1COc1cncc(C=Cc2ccncc2)c1 (as salt: hydrochloride) [Example 13, 5-(2-(4-Pyridinyl)ethenylyl)-3-((1-methyl-2-(S)-pyrrolidinylmethoxy)pyridine Triihydrochloride] | 187 to 190 °C
CN1CCC[C@H]1COc1cncc(C#CCCCC#N)c1 (as salt: hydrochloride) [Example 14, (5-(5-Cyano-1-pentynyl-3-(1-methyl-2-(S)-pyrrolidinylmethoxy)pyridine Dihydrochloride] | 165 to 167 °C
COC(=O)C=Cc1cncc(OC[C@@H]2CCCN2C)c1 (as salt: hydrochloride) [Example 16, 5-(2-(Methoxycarbonyl)ethenyl-3-(1-methyl-2-(S)-pyrrolidinylmethoxy)pyridine Dihydrochloride] | 128 to 130 °C
COC(=O)c1cncc(OC[C@@H]2CCCN2C)c1 (as salt: hydrochloride) [Example 27, 5-Methoxycarbonol-3-(1-methyl-2-(S)-pyrrolidinylmethoxy)pyridine Dihydrochloride] | 165 to 167 °C
CN1CCC[C@H]1COc1cncc(CCc2ccncc2)c1 (as salt: hydrochloride) [Example 29, 5-(2-(4-Pyridinnyl)ethyl)-3-(1-methyl-2-(S)-pyrrolidinnylmethoxy)pyridine Trihydrochloride] | 148 to 150 °C
CN1CCC[C@H]1COc1cncc(-c2ccc3ccccc3c2)c1 (as salt: hydrochloride) [Example 31, 5-(2-Naphthalenyl-3-(1-methyl-2-(S)-pyrrolidinylmethoxy)pyridine Dihydrochloride] | 248 to 251 °C
CN1CCC[C@H]1COc1cncc(-c2cnc3ccccc3c2)c1 (as salt: hydrochloride) [Example 35, 5-(3-Ouinolinyl)-3-(1-methyl-2-(S)-pyrrolidinylmethoxy)pyridine Trihydrochloride] | 184 to 186 °C
CN1CCC[C@H]1COc1cncc(-c2cc(C(F)(F)F)cc(C(F)(F)F)c2)c1 (as salt: hydrochloride) [Example 37, 5-(3,5-bis(Trifluoromehyl)phenyl)-3-(1-methyl-2-(S)-pyrrolidinylmethoxy)pyridine Dihydrochloride] | 68 to 70 °C
CN1CCC[C@H]1COc1cncc(-c2ccc(F)c(Cl)c2)c1 (as salt: hydrochloride) [Example 42, 5-(3-Chloro-4-fluorolphenyl)-3-(1-methyl-2-(S)-pyrrolidinylmethoxy)pyridine Dihydrochloride] | 202 to 204 °C
CN1CCC[C@H]1COc1cnc(Cl)c(C=Cc2ccncc2)c1 (as salt: hydrochloride) [Example 50, 5-(2-(4-Pyridinyl)ethenyl)-6-chloro-3-(1-methyl-(2-(S)-pyrrolidinylmethoxy)pyridine Dihydrochloride] | 218 to 222 °C
CCCCCCC#Cc1cncc(OC[C@@H]2CCN2)c1 (as salt: hydrochloride) [Example 63, 5-Octynyl-3-(2-(S)-azetidinylmethoxy)pyridine Dihydrochloride] | 88 to 90 °C
CN1CCC[C@@H]1COc1cnc(Cl)c(-c2ccc(Cl)cc2)c1 (as salt: hydrochloride) [Example 76, 5-(4-Clhorophenyl)-6-chloro-3-(1-methyl-2-(R)-pyrrolidinylmethoxy)pyridine Hydrochloride] | 176 to 178 °C
CN1CCC[C@@H]1COc1cnc(Cl)c(C=Cc2ccncc2)c1 (as salt: hydrochloride) [Example 82, 5-(2-(4-Pyridinnyl)ethenyl)-6-chloro-3-(1-methyl-2-(R)-pyrrolidinylmethoxy)pyridine Dihydrochloride] | 220 to 222 °C (dec.)
CC(C)(C)C=CC=Cc1cc(OC[C@@H]2CCCN2)cnc1Cl (as salt: hydrochloride) [Example 148, 6-Chloro-5-(5,5dimethyl-1,3-hexadienyl)-3-(2-(S)-pyrrilidinylmethoxy)pyridine Dihydrochloride] | 206 to 208 °C
Clc1ncc(OC[C@@H]2CCCN2)cc1-c1cccs1 (as salt: hydrochloride) [Example 152, 6-Chloro-3-(2-(S)-pyrrolidinolmethoxy)-5-(2-thienyl)pyridine Dihydrochloride] | 208 to 210 °C
CC(C)(C)C=CC=Cc1cncc(OC[C@@H]2CCN2)c1 (as salt: hydrochloride) [Example 163, 3-(2-(S)-Azetidinylmethoxy)-5-(5,5-dimethyl-1,3-hexadiene)pyridine Dihydrochloride] | 142 to 144 °C

SMILES | melting point
CN1CC[C@H]1COc1cncc(C=CC=CC(C)(C)C)c1 (as salt: hydrochloride) [Example 166, 5-(5,5-Dimethyl-1,3-hexadiene)-3-(1-methyl-2-(S)-azetidinylmethoxy)pyridine Dihydrochloride] | 143 to 145 °C
C#Cc1cc(OC[C@@H]2CCCN2)cnc1Cl (as salt: hydrochloride) [Example 194, 6-Chloro-5-(ethynyl-3-(2-(S)-pyrrolidinylmethoxy)pyridine Hydrochloride] | 214 to 216 °C
COCCOc1cncc(OC[C@@H]2CCCN2C)c1 (as salt: hydrochloride) [Example 198, 5-Methoxyethoxy-3-(1-methyl-(2S)-pyrrolidinylmethoxy)pyridine Dihydrochloride] | 196 to 197 °C
Nc1cccc(-c2cncc(OC[C@@H]3CCN3)c2)c1 (as salt: salt) [Example 65, 5-(3-Aminophenyl)-3-(2-(S)-azetidinylmethoxy)pyridine Hidrochloride] | 85 to 87 °C
Clc1ncc(OC[C@@H]2CCN2)cc1-c1ccccc1 (as salt: salt) [Example 67, 5-Phenyl-6-chloro-3-(2-(S)-azetidinylmethoxy)pyridine Hidrochloride] | 148 to 150 °C
CN1CC[C@H]1COc1cnc(Cl)c(-c2ccccc2)c1 (as salt: salt) [Example 68, 5-Phenyl-6-chloro-3-(1-methyl-2-(S)-azetidinylmethoxy)pyridine Hidrochloride] | 187 to 188 °C
Clc1ncc(OC[C@H]2CCCN2)cc1-c1ccccc1 (as salt: salt) [Example 70] | 178 to 180 °C
C=Cc1cc(OC[C@@H]2CCN2C)cnc1C (as salt: salt) [Example 196, 5-Ethenyl-6-methyl-3-(1-methyl-2-(S)-azetidinylmethoxy)pyridine] | 140 to 143 °C
C=Cc1cc(OC[C@@H]2CCN2C)cnc1F (hydrate or solvate) [Example 204, 5-Ethenyl-6-fluoro-3-(1-methyl-2-(S)-azetidinylmethoxy)pyridine] | 156 to 158 °C
C=Cc1cncc(OC[C@@H]2CCCN2C)c1.Cl.Cl [Example 8, 5-Ethenyl-3-(1-methyl-2-(S)-pyrrolidinylmethoxy)pyridine Dihydrochloride] | 152 to 156 °C
CCCCCCCCC#Cc1cncc(OC[C@@H]2CCCN2C)c1.Cl.Cl [Example 9, 5-(1-Decynyl)-3-(1-methyl-2-(S)-pyrrolidinylmethoxy)pyridine Dihydrochloride] | 102 to 105 °C
Cl.Cl.Clc1ccc(-c2cncc(OC[C@@H]3CCCN3)c2)cc1 [Example 20, 5-(4-chlorophenyl)-3-(2-(S)-pyrrolidinylmethoxy)pyridine Dihydrochloride] | 180 to 182 °C
CC(=O)c1cc(OC[C@@H]2CCCN2)cnc1Cl.Cl.Cl [Example 32, 5-Acetyl-6-chloro-3-(2-(S)-pyrrolidinylmethoxy)pyridine Dihydrochloride] | 173 to 176 °C
CC(C)(C)C=CC=Cc1cc(OC[C@H]2CCCN2)cnc1Cl.Cl.Cl [Example 77, 5-(5,5-Dimethyl-1,3-hexadienyl)-6-chloro-3-(2-(R)-pyrrolidinylmethoxy)pyridine Dihydrochloride] | 190 to 192 °C
CN1CCC[C@@H]1COc1cnc(Cl)c(C=CC=CC(C)(C)C)c1.Cl.Cl [Example 78, 5-(5,5-Dimethyl-1,3-hexadienyl)-6-chloro-3-(1-methyl-2-(R)-pyrrolidinylmethoxy)pyridine Dihydrochloride] | 194 °C (dec.)
CCCCCCC#Cc1cc(OC[C@H]2CCCN2C)cnc1Cl.Cl.Cl [Example 80, 5-(1-Octynyl)-6-chloro-3-(1-methyl-2-(R)-pyrrolidinylmethoxy)pyridine Dihydrochloride] | 114 to 116 °C (dec.)
CN1CCC[C@@H]1COc1cnc(Cl)c(CCc2ccncc2)c1.Cl.Cl.Cl [Example 83, 5-(2-(4-Pyridinyl)ethyl)-6-chloro-3-(1-methyl-2-(R)-pyrrolidinylmethoxy)pyridine Trihydrochloride] | 236 to 238 °C
Cl.Cl.Cl.Nc1cccc(-c2cncc(OC[C@H]3CCCN3)c2)c1 [Example 88, 5-(3-Aminophenyl)-3-(2-(R)-pyrrolidinylmethoxy)pyridine Trihydrochloride] | 240 to 242 °C
CC(C)(C)C=CC=Cc1cncc(OC[C@H]2CCCN2)c1.Cl.Cl [Example 138, 5-(5,5-Dimethyl-1,3-hexadienyl)-3-(2-(R)-pyrrolidinylmethoxy)pyridine Dihydrochloride] | 145 to 147 °C
